13 compounds from patent US20240228458A1, “PYRIMIDINE DERIVATIVE HAVING PROTEIN KINASE INHIBITORY ACTIVITY, AND THERAPEUTIC PHARMACEUTICAL COMPOSITION COMPRISING SAME” (THERAPEX CO., LTD., priority 2021, published 2024) can be followed below.

Broadly, the GI50 is the concentration giving 50% growth inhibition.

Holding throughout (assay type): cell-based
In assay [1] the test system is Ba/F3 cells expressing L858R/T790M/C797S (EGFR-LTC). The assay can be described thus: Growth inhibition (GI50) of Ba/F3 cells expressing L858R/T790M/C797S (EGFR-LTC), Celltiter glo. The note with it: Mus musculus, BaF3, 72 h. In short, it runs like this:
(§1)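 We seed Ba/F3 transfectants at 100,000 cells/ml, dose them with ten 4-fold compound dilutions (2 mM top stock, 0.5% DMSO) after 4 h, and culture for 72 h at 37 °C. CellTiter-Glo then reports viable cell number, from which the GI50 is fitted.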
(ATP-based viability assays read luminescence as a measure of living cells.)

The test system of assay [2] is Ba/F3 cells expressing L858R/T790M (EGFR-LT). The assay can be described thus: Growth inhibition (GI50) of Ba/F3 cells expressing L858R/T790M (EGFR-LT), Celltiter glo. The note with it: Mus musculus, BaF3, 72 h. In short, it runs like this: as §1
Assay [3] has as its system Ba/F3 cells expressing EGFR-wt. The assay can be described thus: Growth inhibition (GI50) of Ba/F3 cells expressing EGFR-wt, Celltiter glo. The note with it: Mus musculus, BaF3, 72 h. The essentials: as §1
Assay [4] concerns parental Ba/F3 cell line. The assay can be described thus: Growth inhibition (GI50) of the parental Ba/F3 cell line (not introduced with EGFR variants), Celltiter glo. The note with it: Mus musculus, BaF3, 72 h, parental Ba/F3 cells. In short, it runs like this: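 Parental Ba/F3 cells (100,000 cells/ml) were treated with 10-point, 4-fold compound dilutions (0.5% DMSO; top stock 2 mM) for 72 h at 37 °C, 5% CO2. Viability was read by CellTiter-Glo; GI50 is the concentration (μM) giving 50% growth inhibition.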

Assay [5] has as its system Ba/F3 cells expressing del19/T790M/C797S (EGFR-DTC). The assay can be described thus: Growth inhibition (GI50) of Ba/F3 cells expressing del19/T790M/C797S (EGFR-DTC), Celltiter glo. The note with it: Mus musculus, BaF3, 72 h. In short, it runs like this:
as §1

Assay [6] concerns Ba/F3 cells expressing del19/T790M (EGFR-DT). In words: Growth inhibition (GI50) of Ba/F3 cells expressing del19/T790M (EGFR-DT), Celltiter glo. The note with it: Mus musculus, BaF3, 72 h. The essentials:
as §1

Take `COc1nc(N2CCC(N3CCN(C)CC3)CC2)c(C)cc1Nc1ncc(Br)c(Nc2cc3c(cc2NS(C)(=O)=O)CCO3)n1` [Example 240, N-(6-((5-bromo-2-((2-methoxy-5-methyl-6-(4-(4-methylpiperazin-1-yl)piperidin-1-yl)pyridin-3-yl)amino)pyrimidin-4-yl)amino)-2,3-dihydrobenzofuran-5-yl)methanesulfonamide]: the 50% growth inhibitory concentration (GI50) lay in the range of 0.001 to 0.025 µM in assay [1]; 0.001 to 0.025 µM in assay [2]; 0.5 to 2 µM in assay [3]; 2 to 10 µM in assay [4]; 0.1 to 0.5 µM in assay [5]; 0.1 to 0.5 µM in assay [6].
Regarding `COc1cc(N2CCC(N3CCCN(C)CC3)CC2)c(C)cc1Nc1ncc(Br)c(Nc2cc3c(cc2NS(C)(=O)=O)CCO3)n1` [Example 188, N-(6-((5-bromo-2-((2-methoxy-5-methyl-4-(4-(4-methyl-1,4-diazepan-1-yl)piperidin-1-yl)phenyl)amino)pyrimidin-4-yl)amino)-2,3-dihydrobenzofuran-5-yl)methanesulfonamide], the GI50 fell in the range of 0.001 to 0.025 µM in assay [1]; 0.025 to 0.1 µM in assay [2]; 0.1 to 0.5 µM in assay [3]; 0.5 to 2 µM in assay [4]; 0.001 to 0.025 µM in assay [5]; 0.025 to 0.1 µM in assay [6].
As for `CCc1cc(Nc2ncc(Cl)c(Nc3cc(OC)ccc3NS(C)(=O)=O)n2)c(OC)cc1N1CCC(N2CCN(C)CC2)CC1` [Example 203, N-(2-((5-chloro-2-((5-ethyl-2-methoxy-4-(4-(4-methylpiperazin-1-yl)piperidin-1-yl)phenyl)amino)pyrimidin-4-yl)amino)-4-methoxyphenyl)methanesulfonamide], the GI50 in assay [1] lay within 0.025 to 0.1 µM; in assay [2], 0.1 to 0.5 µM; in assay [3] it was 0.5 to 2 µM; in assay [4], 2 to 10 µM; in assay [5] it was 0.025 to 0.1 µM; in assay [6], 0.001 to 0.025 µM.
In the case of `CN1CCN(C2CCN(c3cc(F)c(Nc4ncc(Cl)c(Nc5cc6c(cc5NS(C)(=O)=O)CCO6)n4)cc3F)CC2)CC1` [Example 268, N-(6-((5-chloro-2-((2,5-difluoro-4-(4-(4-methylpiperazin-1-yl)piperidin-1-yl)phenyl)amino)pyrimidin-4-yl)amino)-2,3-dihydrobenzofuran-5-yl)methanesulfonamide], the GI50 was in the range of 0.1 to 0.5 µM in assay [1]; 0.025 to 0.1 µM in assay [2]; 0.5 to 2 µM in assay [3]; 2 to 10 µM in assay [4]; 0.1 to 0.5 µM in assay [5]; 0.025 to 0.1 µM in assay [6].
Regarding `COc1cc(N2CCC(N3CCCC(N(C)C)C3)CC2)c(Cl)cc1Nc1ncc(Cl)c(Nc2cc3c(cc2NS(C)(=O)=O)CCO3)n1` (stereo not drawn) [Example 219, N-(6-((5-chloro-2-((5-chloro-4-(3-(dimethylamino)-[1,4′-bipiperidin]-1′-yl)-2-methoxyphenyl)amino)pyrimidin-4-yl)amino)-2,3-dihydrobenzofuran-5-yl)methanesulfonamide], the GI50 in assay [1] is 0.025 to 0.1 µM; in assay [2], 0.001 to 0.025 µM; in assay [3] it was 0.1 to 0.5 µM; in assay [4] it was 2 to 10 µM; in assay [5], 0.001 to 0.025 µM; in assay [6], 0.001 to 0.025 µM.
As for `COc1cc(N2CCC(N3CCN(C)CC3)CC2)ccc1Nc1ncc(Cl)c(Nc2ccc3c(c2)NCC3)n1` [Example 279], the GI50 in assay [1] fell in the range of 2 to 10 µM; in assay [2], 0.5 to 2 µM; in assay [3], 2 to 10 µM; in assay [4], 2 to 10 µM; in assay [5], 2 to 10 µM; in assay [6], 0.1 to 0.5 µM.
As for `COc1cc(N2CCC(N3CCCC(N(C)C)C3)CC2)c(Br)cc1Nc1ncc(Br)c(Nc2cc3c(cc2NS(C)(=O)=O)CCO3)n1` (stereo not drawn) [Example 281, N-(6-((5-bromo-2-((5-bromo-4-(3-(dimethylamino)-[1,4′-bipiperidin]-1′-yl)-2-methoxyphenyl)amino)pyrimidin-4-yl)amino)-2,3-dihydrobenzofuran-5-yl)methanesulfonamide], the GI50 in assay [1] lay within 0.001 to 0.025 µM; in assay [2] it was 0.001 to 0.025 µM; in assay [3], 0.1 to 0.5 µM; in assay [4], 0.1 to 0.5 µM; in assay [5] it was 0.025 to 0.1 µM; in assay [6], 0.001 to 0.025 µM.
In the case of `COc1ccc(NS(C)(=O)=O)c(Nc2nc(Nc3cc(C)c(N4CCC(N5CCN(C)CC5)CC4)cc3Cl)ncc2Cl)c1` [Example 200, N-(2-((5-chloro-2-((2-chloro-5-methyl-4-(4-(4-methylpiperazin-1-yl)piperidin-1-yl)phenyl)amino)pyrimidin-4-yl)amino)-4-methoxyphenyl)methanesulfonamide], the GI50 lay within 0.025 to 0.1 µM in assay [1]; 0.025 to 0.1 µM in assay [2]; 0.1 to 0.5 µM in assay [3]; 0.1 to 0.5 µM in assay [4]; 0.025 to 0.1 µM in assay [5]; 0.001 to 0.025 µM in assay [6].
As to `COc1cc(N2CCC(N3CCN(C)CC3)CC2)c(F)cc1Nc1ncc(Cl)c(Nc2cc3c(cc2NS(C)(=O)=O)CCO3)n1` [Example 222, N-(6-((5-chloro-2-((5-fluoro-2-methoxy-4-(4-(4-methylpiperazin-1-yl)piperidin-1-yl)phenyl)amino)pyrimidin-4-yl)amino)-2,3-dihydrobenzofuran-5-yl)methanesulfonamide], the GI50 in assay [1] was in the range of 0.1 to 0.5 µM; in assay [2], 0.001 to 0.025 µM; in assay [3], 0.1 to 0.5 µM; in assay [4] it was 2 to 10 µM; in assay [5], 0.001 to 0.025 µM; in assay [6] it was 0.001 to 0.025 µM.
With `COc1nc(N2CCN(CCO)CC2)ccc1Nc1ncc(Cl)c(Nc2ccc(F)cc2NS(C)(=O)=O)n1` [Example 18], the GI50 in assay [1] lay within 0.5 to 2 µM; in assay [2], 0.5 to 2 µM; in assay [3], 0.025 to 0.1 µM; in assay [4], 0.1 to 0.5 µM; in assay [5] it was 0.5 to 2 µM; in assay [6], 0.5 to 2 µM.
On to `COc1cc(N2CCC(N3CCN(C)CC3)CC2)c(C)cc1Nc1ncc(Cl)c(Nc2cc(Cl)ccc2P(C)(C)=O)n1` [Example 153, (4-chloro-2-((5-chloro-2-((2-methoxy-5-methyl-4-(4-(4-methylpiperazin-1-yl)piperidin-1-yl)phenyl)amino)pyrimidin-4-yl)amino)phenyl)dimethylphosphine oxide], for which the GI50 in assay [1] was in the range of 0.1 to 0.5 µM; in assay [2] it was 0.5 to 2 µM; in assay [3] it was 0.5 to 2 µM; in assay [4], 2 to 10 µM; in assay [5], 0.1 to 0.5 µM; in assay [6], 0.1 to 0.5 µM.
For the compound `Cc1cc(Nc2ncc(Cl)c(Nc3cc(Cl)ccc3N(C)S(C)(=O)=O)n2)c(Cl)cc1N1CCC(N2CCCN(C)CC2)CC1` [Example 180, N-(4-chloro-2-((5-chloro-2-((2-chloro-5-methyl-4-(4-(4-methyl-1,4-diazepan-1-yl)piperidin-1-yl)phenyl)amino)pyrimidin-4-yl)amino)phenyl)-N-methylmethanesulfonamide], the GI50 lay in the range of 0.025 to 0.1 µM in assay [1]; 0.025 to 0.1 µM in assay [2]; 0.5 to 2 µM in assay [3]; 2 to 10 µM in assay [4]; 0.025 to 0.1 µM in assay [5]; 0.025 to 0.1 µM in assay [6].
In the case of `COc1cc(N2CCC(N3CCCC(N(C)C)C3)CC2)c(C)cc1Nc1ncc(Br)c(Nc2cc(Cl)ccc2NS(C)(=O)=O)n1` (stereo not drawn) [Example 90, N-(2-((5-Bromo-2-((4-(3-(dimethylamino)-[1,4′-bipiperidin]-1′-yl)-2-methoxy-5-methylphenyl)amino)pyrimidin-4-yl)amino)-4-chlorophenyl)methanesulfonamide], the GI50 in assay [1] is 0.001 to 0.025 µM; in assay [2], 0.001 to 0.025 µM; in assay [3], 0.1 to 0.5 µM; in assay [4], 0.5 to 2 µM; in assay [5] it was 0.001 to 0.025 µM; in assay [6] it was 0.001 to 0.025 µM.
